Patent US9212184B2, “6-thio-substituted imidazo[1,2-a]pyrazines as Mps-1 inhibitors” (BAYER INTELLECTUAL PROPERTY GMBH, priority 2010, dated 2015)

Molecular target: human kinase Mps-1 (Homo sapiens (Human), UniProt P33981)
Test: Mps-1 kinase assay (TR-FRET)
Assay type: biochemical
Settings: N-terminally GST-tagged human full length recombinant Mps-1; 10 μM ATP; 1 μM peptide substrate; 60 min at 22° C.; read-out: Mps1 IC50
Procedure: The human kinase Mps-1 phosphorylates a biotinylated substrate peptide. Detection of the phosphorylated product is achieved by time-resolved fluorescence resonance energy transfer (TR-FRET) from Europium-labelled anti-phospho-Serine/Threonine antibody as donor to streptavidin labelled with cross-linked allophycocyanin (SA-XLent) as acceptor. Compounds are tested for their inhibition of the kinase activity.
N-terminally GST-tagged human full length recombinant Mps-1 kinase (purchased from Invitrogen, Karslruhe, Germany, cat. no PV4071) was used. As substrate for the kinase reaction a biotinylated peptide of the amino-acid sequence PWDPDDADITEILG (C-terminus in amide form, purchased from Biosynthan GmbH, Berlin) was used.
For the assay 50 nL of a 100-fold concentrated solution of the test compound in DMSO was pipetted into a black low volume 384 well microtiter plate (Greiner Bio-One, Frickenhausen, Germany), 2 μl of a solution of Mps-1 in assay buffer [0.1 mM sodium-ortho-vanadate, 10 mM MgCl2, 2 mM DTT, 25 mM Hepes pH 7.7, 0.05% BSA, 0.001% Pluronic F-127] were added and the mixture was incubated for 15 min at 22° C. to allow pre-binding of the test compounds to Mps-1 before the start of the kinase reaction. […]
The resulting mixture was incubated 1 h at 22° C. to allow the binding of the phosphorylated peptide to the anti-phospho(Ser/Thr)-Europium-antibody. Subsequently the amount of phosphorylated substrate was evaluated by measurement of the resonance energy transfer from the Europium-labelled anti-phospho(Ser/Thr) antibody to the Streptavidin-XLent. Therefore, the fluorescence emissions at 620 nm and 665 nm after excitation at 350 nm was measured in a Viewlux TR-FRET reader (PerkinElmer LAS, Rodgau-Jügesheim, Germany). The “blank-corrected normalized ratio” (a Viewlux specific readout, similar to the traditional ratio of the emissions at 665 nm and at 622 nm, in which blank and Eu-donor crosstalk are subtracted from the 665 nm signal before the ratio is calculated) was taken as the measure for the amount of phosphorylated substrate. […]

Sequence of human kinase Mps-1 (P33981 whole entry): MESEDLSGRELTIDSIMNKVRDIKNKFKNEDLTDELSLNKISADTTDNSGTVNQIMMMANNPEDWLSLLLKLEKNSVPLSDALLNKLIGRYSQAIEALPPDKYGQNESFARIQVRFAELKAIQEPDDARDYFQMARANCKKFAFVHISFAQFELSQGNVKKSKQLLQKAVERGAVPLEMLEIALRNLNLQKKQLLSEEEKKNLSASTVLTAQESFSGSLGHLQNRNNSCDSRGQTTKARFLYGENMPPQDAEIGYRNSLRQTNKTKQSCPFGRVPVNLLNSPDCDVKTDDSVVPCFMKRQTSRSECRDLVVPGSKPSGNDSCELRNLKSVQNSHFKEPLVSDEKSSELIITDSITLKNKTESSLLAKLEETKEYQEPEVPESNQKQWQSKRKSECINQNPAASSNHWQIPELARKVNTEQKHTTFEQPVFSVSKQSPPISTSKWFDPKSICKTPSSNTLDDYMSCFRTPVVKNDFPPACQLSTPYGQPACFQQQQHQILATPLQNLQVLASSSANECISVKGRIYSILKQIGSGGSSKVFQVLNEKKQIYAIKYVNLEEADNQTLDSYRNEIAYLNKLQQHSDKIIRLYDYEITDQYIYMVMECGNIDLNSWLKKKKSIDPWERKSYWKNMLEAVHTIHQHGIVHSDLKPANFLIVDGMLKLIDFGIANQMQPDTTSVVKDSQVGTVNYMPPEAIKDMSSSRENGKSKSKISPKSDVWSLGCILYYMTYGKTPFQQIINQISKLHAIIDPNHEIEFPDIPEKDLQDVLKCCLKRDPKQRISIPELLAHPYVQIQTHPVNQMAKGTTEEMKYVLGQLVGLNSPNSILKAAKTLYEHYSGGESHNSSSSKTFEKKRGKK

IC50 [nM]	Structure (SMILES)
5	CSc1cn2c(-c3ccc(C(=O)NC4CC4)cc3)cnc2c(NCC(C)C)n1 [Example 1-2, N-cyclopropyl-4-{8-[(2-methylpropyl)amino]-6-(methylsulfanyl)imidazo[1,2-a]pyrazin-3-yl}benzamide]
8.6	CSc1cn2c(-c3ccc(C(=O)NC4CC4)c(C)c3)cnc2c(NCCC(F)(F)F)n1 [Example 1-3, N-cyclopropyl-2-methyl-4-{6-(methylsulfanyl)-8-[(3,3,3-trifluoropropyl)amino]imidazo[1,2-a]pyrazin-3-yl} benzamide]
64.8	CSc1cn2c(-c3ccc(C(=O)NC4CC4)c(C)c3)cnc2c(NCC(C)(C)O)n1 [Example 1-4, N-cyclopropyl-4-{8-[(2-hydroxy-2-methylpropyl)amino]-6-(methylsulfanyl)imidazo [1,2-a]pyrazin-3-yl}-2-methylbenzamide]
